We go through three molecules from PMC10101059, “Rational Design of Stapled Antimicrobial Peptides to Enhance Stability and In Vivo Potency against Polymicrobial Sepsis” (Microbiology Spectrum, 2023).

Type in all cases: cell-based
In data set [1] the test system is Staphylococcus aureus. The protocol:
(§1) The antimicrobial assay was performed according to a modified National Committee for Clinical Laboratory Standards (NCCLS) protocol ([41], [42]). Briefly, 5 × 10^5 CFU/mL bacterial cells were treated with various peptide concentrations and incubated at 37 ± 2°C for 16 to 20 h. The lowest concentration with clear wells was recorded as the MIC for each test molecule. The clear wells were further plated in Mueller-Hinton agar (MHA) plates, followed by incubation overnight at 37 ± 2°C. After plating, the lowest concentration at which no growth was observed was recorded as the MBC. For the serum sensitivity assay, the antimicrobial activity of the peptides was tested in medium containing 50% human serum ([43], [44]).

The test system of data set [2] is Acinetobacter baumannii. Kind of data set: microbe, parasite or virus in culture. Conditions: for MBC: read-out: MBC; for MIC: read-out: MIC. The protocol:
as §1, with “[44]). The antimicrobial assay was performed in the presence of physiological ions and glucose. The test media were supplemented with MgCl2 (1 mM), CaCl2 (2 mM), NaCl (150 mM), KCl (4.5 mM), NH4Cl (6 μM) ([45], [46]), or glucose (0.2%) ([47]), followed by routine antimicrobial assay as described previously. For the pH sensitivity assay, the antimicrobial assay was performed in media adjusted to pH values ranging from 4 to 12. To estimate the effects of temperature on antimicrobial activity, the peptide was incubated for 1 h at temperatures ranging from 40 to 100°C ([48]), followed by the antimicrobial assay as described above.” for “[44]).”

The test system of data set [3] is human red blood cells. How it is done: The hemolytic assay was performed after approval from the institutional ethics committee (Academia Sinica Institutional Review Board [IRB]; ID no. AS-IRB02-111075). Blood was collected from healthy humans, and 50 μL of a 2% blood cell suspension in normal saline was treated with an equal volume of peptide at different concentrations. The mixture was then incubated at 37 ± 2°C for 1 h. Next, the cell suspension was centrifuged at 1,000 × g for 10 min. Percent hemolysis was estimated by the absorbance of treated and control supernatant samples at 540 nm ([23], [44]).

Converted amounts (≈) assume the structure as drawn. Bridge positions count the residues as written; N and C are the ends. Square brackets hold non-standard residues; d marks the D form. Peptide text beside a SMILES is read from it. R5 = C=CCCC[C@@](C)(N)C(=O)O Where only a bound is given, the exact number is not on record here.

`CC[C@H](C)[C@H](NC(=O)[C@@H](NC(=O)[C@@H](N)Cc1ccccc1)[C@@H](C)CC)C(=O)N[C@]1(C)CCCC=CCCC[C@](C)(C(=O)NCC(=O)N[C@@H](CC(C)C)C(=O)N[C@]2(C)CCCC=CCCC[C@](C)(C(=O)NCC(=O)N[C@@H](C)C(=O)N[C@]3(C)CCCC=CCCC[C@](C)(C(=O)N[C@H](C(=O)N[C@@H](CCCCN)C(=O)N[C@@H](CCCCN)C(=O)O)[C@@H](C)CC)NC(=O)[C@H](CCCCN)NC(=O)[C@H](CCCCN)NC(=O)[C@H](CCCCN)NC3=O)NC(=O)[C@H](CCCCN)NC(=O)[C@H](CCCCN)NC(=O)[C@H](CCCCN)NC2=O)NC(=O)[C@H](CO)NC(=O)[C@H](CCCCN)NC(=O)[C@H](CCCCN)NC1=O` [TP4-4] (H-FII[R5]KKS[R5]GL[R5]KKK[R5]GA[R5]KKK[R5]IKK-OH; staple 4-8, 11-15, 18-22; N-terminus and C-terminus assumed): the MBC was more than 25 µM in data set [1] and 12.5 µM (≈ 36.5 µg/mL) in data set [2]. The MIC is more than 25 µM in data set [1] and 12.5 µM (≈ 36.5 µg/mL) in data set [2]. Besides, the 15% hemolysis concn in data set [3] is more than 100 µM.
In the case of `CC[C@H](C)[C@H](NC(=O)[C@@H](NC(=O)[C@@H](NC(=O)[C@@H](N)Cc1ccccc1)[C@@H](C)CC)[C@@H](C)CC)C(=O)N[C@@H](CCCCN)C(=O)N[C@@H](CCCCN)C(=O)N[C@@H](CO)C(=O)NCC(=O)NCC(=O)N[C@@H](CC(C)C)C(=O)N[C@]1(C)CCCC=CCCC[C@](C)(C(=O)NCC(=O)N[C@@H](C)C(=O)N[C@]2(C)CCCC=CCCC[C@](C)(C(=O)N[C@H](C(=O)N[C@@H](CCCCN)C(=O)N[C@@H](CCCCN)C(=O)O)[C@@H](C)CC)NC(=O)[C@H](CCCCN)NC(=O)[C@H](CCCCN)NC(=O)[C@H](CCCCN)NC2=O)NC(=O)[C@H](CCCCN)NC(=O)[C@H](CCCCN)NC(=O)[C@H](CCCCN)NC1=O` [TP4-2] (H-FIIIKKSGGL[R5]KKK[R5]GA[R5]KKK[R5]IKK-OH; staple 11-15, 18-22; N-terminus and C-terminus assumed), the MBC in data set [1] is more than 25 µM; in data set [2], 12.5 µM (≈ 35.5 µg/mL). Further, the MIC in data set [1] was more than 25 µM; in data set [2] it was 12.5 µM (≈ 35.5 µg/mL). Besides, the 15% hemolysis concn in data set [3] is more than 100 µM.
In the case of `CC[C@H](C)[C@H](NC(=O)[C@@H](NC(=O)[C@@H](NC(=O)[C@@H](N)Cc1ccccc1)[C@@H](C)CC)[C@@H](C)CC)C(=O)N[C@@H](CCCCN)C(=O)N[C@@H](CCCCN)C(=O)N[C@@H](CO)C(=O)NCC(=O)NCC(=O)N[C@@H](CC(C)C)C(=O)N[C@@H](Cc1ccccc1)C(=O)N[C@@H](CCCCN)C(=O)N[C@@H](CCCCN)C(=O)N[C@@H](CCCCN)C(=O)N[C@@H](C)C(=O)NCC(=O)N[C@@H](C)C(=O)N[C@]1(C)CCCC=CCCC[C@](C)(C(=O)N[C@H](C(=O)N[C@@H](CCCCN)C(=O)N[C@@H](CCCCN)C(=O)O)[C@@H](C)CC)NC(=O)[C@H](CCCCN)NC(=O)[C@H](CCCCN)NC(=O)[C@H](CCCCN)NC1=O` [TP4-1] (H-FIIIKKSGGLFKKKAGA[R5]KKK[R5]IKK-OH; staple 18-22; N-terminus and C-terminus assumed), the MBC in data set [1] and in data set [2] was more than 25 µM throughout. For the same molecule, the MIC in data set [1] and in data set [2] was more than 25 µM in each case. In data set [3], this molecule showed a 15% hemolysis concn of more than 100 µM.
